In patent US20120141589A1, “PARTICLES FOR DRUG DELIVERY AND OTHER APPLICATIONS” (BASF SE, priority 2010, published 2012):

Key:
[1] = Dissolution test of drug/CaCO3 hybrid particles against raw drug crystals, flow-through UV-Vis; assay type: physicochemical; details: drug in CaCO3 hybrid particles; 10 mM SDS, pH 1.5 (HCl), 37° C., sink conditions, monitored at 290 nm
Method: In this example, the dissolution rates of the particles were determined, and compared to compared with raw, micron-sized drug crystals.
During the dissolution experiments, for convenience, dissolution media was placed in a dissolution chamber which is typically used for pressure dialysis; no pressure was applied for the measurements described here. The vessel used in these experiments contained a built-in stir bar and the dissolution media was stirred at a rate of approximately one revolution per second. Dissolution media was drawn from the bottom of the vessel, through a 0.1 micron PTFE filter. The media vessel was connected to a flow-through UV-Vis spectrophotometer cell via tubing and the liquid was driven using a peristaltic pump. A flow rate of 8 mL per second was used. The output of the flow-through cell was connected back to the dissolution chamber, so that the flow formed a closed loop; in this manner the volume of the dissolution media was conserved.
All water used was distilled and de-ionized. […] The raw drug powder was not ground. […] All dissolution media was kept at 37° C.

[2] = no UV-vis signal detectable in pure water or acidic water with added HCl
Method: All water used was distilled and de-ionized. These drugs were monitored at a wavelength of 290 nm. Templates were prepared for dissolution testing by grinding pellets in a mortar and pestle into a fine powder. The raw drug powder was not ground. All tests were performed under sink conditions, where the total amount of drug added is less than one third of the saturation concentration. All dissolution media was kept at 37° C.

SMILES | dissolution rate when incorporated into a hybrid structure, compared with raw, micron-sized drug crystals [1] | solubility in water [2]
Clc1ccccc1C(c1ccccc1)(c1ccccc1)n1ccnc1 [chlotrimazole] | enhanced dissolution rates | poorly soluble in water
C[C@]12CC[C@@H]3c4ccc(O)cc4CC[C@H]3[C@@H]1CC[C@@H]2O [estradiol, 17-beta estradiol] | enhanced dissolution rates | –
